Measured values from US20230000088A1, “USE OF ALGINATES OLIGOMERS TO IMPROVE PLANT PROTECTION AGAINST PATHOGENS” (Université de Bourgogne, priority 2019, published 2023).

Tested on: P. viticola
Assay: Protection of greenhouse vine plants against downy mildew (sporulating leaf area, leaf disks, 6 dpi)
Type: in vivo, Plasmopara viticola
Conditions: A1 1 g/L, Pip 0.1 mM, alone or combined, FIG. 5
Description: Grapevine (V. vinifera cv. Marselan) herbaceous cuttings were grown in individual pots (10×7×7 cm) containing a mixture of peat and perlite (4:1, vol/vol) in a greenhouse at 25±4 and 18±7° C. (day and night, respectively) until they developed 6-8 leaves. Artificial illumination was supplemented when the natural light was less than 200 μmol. m.^−2 s^−1 during the 16 h light period. Plants were watered with a fertilization solution (Topfert2 Plantin. France).
Alginates A1, A2, A3 with a degree of polymerization (DP) of 491, 228, 355 respectively were used. They were prepared at 1, 2 and 4 g/L in ultrapure water and applied to both the upper and lower faces of leaves until the point of run-off using a manual sprayer. Plants were maintained in the greenhouse in the conditions described above. Ultrapure water was used as negative control and sprayed in the same manner. […]
Briefly, 6 days post-inoculation (dpi), leaf disks were punched out and placed with the abaxial side uppermost, on a moist Whatman paper, in a closed plastic box. […] Disease intensity was assessed by measuring the leaf area covered by the pathogen sporulation using a “macro” developed for the image analysis Visilog 6.9 software (Noesis, France; Kim Khiook et al., 2013) and the disease reduction rate is calculated as follows: (1−(treated sporulating area/control sporulating area))×100. […]

O=C(O)C1CCCCN1 (stereo not shown) [Pip, pipecolic acid]
rate protection against P. viticola: around 35%
